Test results as given in the NIST ThermoML archive (doi:10.1016/j.fluid.2007.08.013).
Values joined by “and” are separate entries in the source; they are usually repeats but may differ in a detail not shown here. Identical values can stand only once. Numbers after ± are expanded uncertainties.

Test: activity coefficient (dimensionless); of the first substance listed, at infinite dilution; xn = mol fraction of the nth substance listed
Conditions: Liquid, x1 = 0

C1COCO1 [1,3-dioxolane] + O
Conditions | activity coefficient
273.35 K, relative headspace analysis | 8.13 ± 0.49
278.15 K, relative headspace analysis | 8.48 ± 0.51
288.15 K, relative headspace analysis | 9.12 ± 0.55
298.15 K, relative headspace analysis | 9.71 ± 0.58
308.15 K, relative headspace analysis | 10.2 ± 0.6
318.15 K, Chromatography | 10.6 ± 0.7
328.15 K, Chromatography | 10.9 ± 0.7
338.15 K, non steady state GLC | 11 and 11.4
348.15 K, Rayleigh distillation | 11.3 ± 0.7
372.55 K, circulation still | 11.2 ± 0.7

C1CCOC1 [tetrahydrofuran] + O
Conditions | activity coefficient
273.35 K, classical headspace analysis | 9.74 ± 0.58
278.15 K, classical headspace analysis | 11.1 ± 0.7
288.15 K, Chromatography | 14.3 ± 1
298.15 K, Chromatography | 17.6 ± 1.2
308.15 K, Chromatography | 20.6 ± 1.4
318.15 K, Chromatography | 24 ± 1.6
328.15 K, non steady state GLC | 26.8 and 28.1

C1CCOCC1 [tetrahydropyran] + O
activity coefficient
Conditions | 273.35 K | 283.15 K | 288.15 K | 298.15 K | 308.15 K | 318.15 K | 328.15 K
Chromatography | – | – | 58 ± 4 | 70.5 ± 4.8 | 83.4 ± 5.7 | 96.2 ± 6.6 | 108 ± 7.4
relative headspace analysis | 39.6 ± 2.4 | 44.9 ± 2.7 | – | – | – | – | –

COCOC [dimethoxymethane] + O
Chromatography
Conditions | activity coefficient
273.35 K | 10.8 ± 0.7
283.15 K | 13.7 ± 0.9
293.15 K | 15.6 ± 1.1
298.15 K | 16.9 ± 1.2
303.15 K | 18 ± 1.2
313.15 K | 19.9 ± 1.4
323.15 K | 22 ± 1.5
333.15 K | 23.9 ± 1.6

CCOCC [diethyl ether] + O
Chromatography
Conditions | activity coefficient
273.35 K | 33.9 ± 2.3
278.15 K | 41.2 ± 2.8
283.15 K | 49.4 ± 3.4
288.15 K | 58.5 ± 4
293.15 K | 68.6 ± 4.7
298.15 K | 77.1 ± 5.3
303.15 K | 88.8 ± 6.1
308.15 K | 98.8 ± 6.8
318.15 K | 121 ± 8.3
328.15 K | 140 ± 9.6

C1COCCO1 [1,4-dioxane] + O
Conditions | activity coefficient
273.35 K, relative headspace analysis | 3.53 ± 0.21
278.15 K, relative headspace analysis | 4 ± 0.24
288.15 K, headspace analysis | 5.17 ± 0.31
288.15 K, relative headspace analysis | 4.75 ± 0.29
298.15 K, headspace analysis | 5.88 ± 0.35
308.15 K, headspace analysis | 6.7 ± 0.4
308.15 K, relative headspace analysis | 6.15 ± 0.37
318.15 K, relative headspace analysis | 6.82 ± 0.41
328.15 K, non steady state GLC | 7.76 ± 0.47
338.15 K, Chromatography | 8.22 ± 0.56
338.15 K, non steady state GLC | 8.27 ± 0.5
348.15 K, rayleigh distillation | 8.43 ± 0.51
372.5 K, circulation still | 10.3 ± 0.6

COCCOC [1,2-dimethoxyethane] + O
Conditions | activity coefficient
318.15 K, Chromatography | 7.25 ± 0.49
328.15 K, non steady state GLC | 9.12 and 8.81
338.15 K, non steady state GLC | 11.2 and 11.1
348.15 K, Rayleigh distillation | 12.2 ± 0.7
372.5 K, circulation still | 14.9 ± 0.9
